Assay results reported in PubChem BioAssay AID248 (DTP/NCI, 2004).
Where “and” joins values, the source holds several entries; their conditions need not be identical. Identical values can stand only once. Toxic doses and inconclusive results are not listed. No stated cut-off is given here; in the data, active means T/C of 150% or more; inactive means T/C below 125%.

Tested on: L1210 leukemia ip in BDF1 mice, survival T/C
Experiment: NCI In Vivo Anticancer Drug Screen. Data for tumor model L1210 Leukemia (intraperitoneal) in B6D2F1 (BDF1) mice
Settings: endpoint: mean survival time, higher = longer survival
Summary of the method: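 In this screen, tumor-bearing mice given compound are compared to those given vehicle, and their survival values are reported as a treated-to-control quotient.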

[1] = dose: 100.0 mg/kg/injection, schedule: Q04DX003 (ip), vehicle: Klucel (hydroxypropylcellulose) (HPC)
[2] = dose: 200.0 mg/kg/injection, schedule: Q04DX003 (ip), vehicle: Klucel (hydroxypropylcellulose) (HPC)
[3] = dose: 400.0 mg/kg/injection, schedule: Q04DX003 (ip), vehicle: Klucel (hydroxypropylcellulose) (HPC)
[4] = dose: 100.0 mg/kg/injection, schedule: Q04DX003 (ip), vehicle: saline with Tween-80
[5] = dose: 100.0 mg/kg/injection, schedule: Q04DX002 (ip), vehicle: Klucel (hydroxypropylcellulose) (HPC)
[6] = dose: 200.0 mg/kg/injection, schedule: Q04DX002 (ip), vehicle: Klucel (hydroxypropylcellulose) (HPC)
[7] = dose: 400.0 mg/kg/injection, schedule: Q04DX002 (ip), vehicle: Klucel (hydroxypropylcellulose) (HPC)
[8] = dose: 100.0 mg/kg/injection, schedule: Q01DX009 (ip), vehicle: Klucel (hydroxypropylcellulose) (HPC)
[9] = dose: 200.0 mg/kg/injection, schedule: Q01DX009 (ip), vehicle: Klucel (hydroxypropylcellulose) (HPC)
[10] = dose: 400.0 mg/kg/injection, schedule: Q01DX009 (ip), vehicle: Klucel (hydroxypropylcellulose) (HPC)
[11] = dose: 100.0 mg/kg/injection, schedule: Q01DX001 (ip), vehicle: Klucel (hydroxypropylcellulose) (HPC)
[12] = dose: 200.0 mg/kg/injection, schedule: Q01DX001 (ip), vehicle: Klucel (hydroxypropylcellulose) (HPC)

Measured: T/C

CCC(CC)NNC(CC)CC
inactive: dose: 75.0 mg/kg/injection, schedule: Q01DX001 (ip), vehicle: other 105 % of control | dose: 75.0 mg/kg/injection, schedule: Q01DX001 (ip), vehicle: saline 98 % of control | dose: 150.0 mg/kg/injection, schedule: Q01DX001 (ip), vehicle: other 98 % of control | dose: 150.0 mg/kg/injection, schedule: Q01DX001 (ip), vehicle: saline 96 % of control | dose: 300.0 mg/kg/injection, schedule: Q01DX001 (ip), vehicle: other 118 % of control

CC(CBr)C(=O)O (stereo unspecified)
inactive: dose: 100.0 mg/kg/injection, schedule: Q04DX002 (ip), vehicle: saline with Tween-80 97 % of control | dose: 200.0 mg/kg/injection, schedule: Q04DX002 (ip), vehicle: saline with Tween-80 97 % of control

O=C(NCCCl)Nc1ccccc1-c1ccccc1
inactive: [1] 101 % of control | [2] 95 % of control | [3] 115 % of control

CS(=O)(=O)OCC(O)C(O)COS(C)(=O)=O (stereo unspecified)
inactive: dose: 50.0 mg/kg/injection, schedule: Q01DX010 (ip), vehicle: saline 93 % of control and 91 % of control | dose: 100.0 mg/kg/injection, schedule: Q01DX010 (ip), vehicle: saline 96 % of control | dose: 125.0 mg/kg/injection, schedule: Q01DX Z (ip), vehicle: carboxymethylcellulose (CMC) 103 % of control | dose: 200.0 mg/kg/injection, schedule: Q01DX010 (ip), vehicle: saline 102 % of control and 108 % of control | dose: 250.0 mg/kg/injection, schedule: Q01DX Z (ip), vehicle: carboxymethylcellulose (CMC) 112 % of control | dose: 400.0 mg/kg/injection, schedule: Q01DX010 (ip), vehicle: saline 117 % of control | dose: 440.0 mg/kg/injection, schedule: Q01DX001 (ip), vehicle: carboxymethylcellulose (CMC) 101 % of control and 107 % of control | dose: 500.0 mg/kg/injection, schedule: Q01DX Z (ip), vehicle: carboxymethylcellulose (CMC) 123 % of control | dose: 670.0 mg/kg/injection, schedule: Q01DX001 (ip), vehicle: carboxymethylcellulose (CMC) 101 % of control and 107 % of control | dose: 1000.0 mg/kg/injection, schedule: Q01DX001 (ip), vehicle: carboxymethylcellulose (CMC) 103 % of control and 110 % of control

NCC(=O)Nc1ccc(Cl)cc1C(=O)c1ccc[nH]1
inactive: dose: 100.0 mg/kg/injection, schedule: Q01DX009 (ip), vehicle: saline with Tween-80 93 % of control | dose: 200.0 mg/kg/injection, schedule: Q01DX009 (ip), vehicle: saline with Tween-80 87 % of control | dose: 400.0 mg/kg/injection, schedule: Q01DX009 (ip), vehicle: saline with Tween-80 90 % of control

CCN(CC)CC(OC(=O)C(c1ccccc1)c1ccccc1)C(COC)OC (stereo unspecified)
inactive: dose: 55.0 mg/kg/injection, schedule: Q01DX Z (ip), vehicle: saline 109 % of control | dose: 83.0 mg/kg/injection, schedule: Q01DX Z (ip), vehicle: saline 96 % of control | dose: 125.0 mg/kg/injection, schedule: Q01DX Z (ip), vehicle: saline 91 % of control

CC(C)(C)CC(C)(C)NCC#N
inactive: dose: 6.25 mg/kg/injection, schedule: Q04DX003 (ip), vehicle: Klucel (hydroxypropylcellulose) (HPC) 92 % of control | dose: 12.5 mg/kg/injection, schedule: Q04DX003 (ip), vehicle: Klucel (hydroxypropylcellulose) (HPC) 95 % of control | dose: 25.0 mg/kg/injection, schedule: Q04DX003 (ip), vehicle: Klucel (hydroxypropylcellulose) (HPC) 92 % of control and 96 % of control

c1ccc(-c2nncnn2)cc1
inactive: dose: 25.0 mg/kg/injection, schedule: Q04DX003 (ip), vehicle: saline with Tween-80 97 % of control | dose: 50.0 mg/kg/injection, schedule: Q04DX003 (ip), vehicle: saline with Tween-80 92 % of control | [4] 101 % of control

CCC1CN2C(=N1)c1ccccc1-c1cc(Br)ccc12 (stereo unspecified)
inactive: dose: 2.5 mg/kg/injection, schedule: Q01DX009 (ip), vehicle: Klucel (hydroxypropylcellulose) (HPC) 104 % of control | dose: 2.5 mg/kg/injection, schedule: Q04DX003 (ip), vehicle: Klucel (hydroxypropylcellulose) (HPC) 100 % of control | dose: 5.0 mg/kg/injection, schedule: Q01DX009 (ip), vehicle: Klucel (hydroxypropylcellulose) (HPC) 98 % of control | dose: 5.0 mg/kg/injection, schedule: Q04DX003 (ip), vehicle: Klucel (hydroxypropylcellulose) (HPC) 100 % of control | dose: 10.0 mg/kg/injection, schedule: Q01DX009 (ip), vehicle: Klucel (hydroxypropylcellulose) (HPC) 116 % of control | dose: 10.0 mg/kg/injection, schedule: Q04DX003 (ip), vehicle: Klucel (hydroxypropylcellulose) (HPC) 96 % of control

O=C(NCCCCCCCCCCNC(=O)Nc1cccc(C2=NCCN2)c1)Nc1cccc(C2=NCCN2)c1
inactive: dose: 10.0 mg/kg/injection, schedule: Q01DX Z (ip), vehicle: water 106 % of control | dose: 20.0 mg/kg/injection, schedule: Q01DX Z (ip), vehicle: water 90 % of control

CCN(C(=O)c1cccc(C(=O)N(CC)c2cccc(C)c2)c1)c1cccc(C)c1
inactive: [5] 94 % of control | [6] 91 % of control | [7] 91 % of control

CSc1ncc(C(=O)O)c(=O)[nH]1
inactive: dose: 50.0 mg/kg/injection, schedule: Q01DX009 (ip), vehicle: Klucel (hydroxypropylcellulose) (HPC) 95 % of control | [8] 88 % of control and 90 % of control | [1] 104 % of control | [9] 94 % of control | [2] 101 % of control | [10] 88 % of control | [3] 102 % of control

c1ccc2c(c1)C(=C1c3ccccc3-c3ccccc31)c1ccccc1-2
inactive: [11] 104 % of control | [12] 96 % of control

O=C(COc1ccc(Cl)cc1Cl)Nc1cc(Cl)ccc1Cl
inactive: dose: 100.0 mg/kg/injection, schedule: Q04DX002 (ip), vehicle: gum acacia 95 % of control | dose: 200.0 mg/kg/injection, schedule: Q04DX002 (ip), vehicle: gum acacia 95 % of control | dose: 400.0 mg/kg/injection, schedule: Q04DX002 (ip), vehicle: gum acacia 100 % of control

CCSc1nc(C2NC(C(=O)O)CS2)cc(=O)[nH]1 (stereo unspecified)
inactive: dose: 50.0 mg/kg/injection, schedule: Q01DX001 (ip), vehicle: Klucel (hydroxypropylcellulose) (HPC) 98 % of control | [11] 98 % of control | [12] 97 % of control

COC(=O)c1ccc(OCCOc2ccc(C(C)(C)CC(C)(C)C)cc2)c([N+](=O)[O-])c1
inactive: [4] 91 % of control | dose: 200.0 mg/kg/injection, schedule: Q04DX003 (ip), vehicle: saline with Tween-80 93 % of control | dose: 400.0 mg/kg/injection, schedule: Q04DX003 (ip), vehicle: saline with Tween-80 91 % of control

CCCCCCCCCCCC(=O)NC(=S)Nc1cccc(O)c1
inactive: [5] 104 % of control | [6] 87 % of control | [7] 104 % of control

CCOC(=O)C(O)(C(=O)OCC)C1C(=O)c2ccccc2C1=O
inactive: dose: 50.0 mg/kg/injection, schedule: Q04DX003 (ip), vehicle: Klucel (hydroxypropylcellulose) (HPC) 91 % of control | [1] 98 % of control | [2] 99 % of control

O=S(=O)(O)OCc1cc(O)c(OS(=O)(=O)O)c(Br)c1Br
inactive: dose: 100.0 mg/kg/injection, schedule: Q01DX001 (ip), vehicle: saline with Tween-80 97 % of control | dose: 200.0 mg/kg/injection, schedule: Q01DX001 (ip), vehicle: saline with Tween-80 102 % of control | dose: 400.0 mg/kg/injection, schedule: Q01DX001 (ip), vehicle: saline with Tween-80 94 % of control

CCN1C(=O)NC(=O)/C(=C/N(CCO)CCO)C1=O
inactive: [8] 106 % of control | [1] 94 % of control | [9] 101 % of control | [2] 98 % of control | [10] 100 % of control | [3] 93 % of control
